Assay results as given in patent US20100112089A1, “PEPTIDE COMPOUND AND USE THEREOF” (Takeda Pharmaceutical Company Limited, priority 2008, published 2010).
Counter-ions that a name gives are not always drawn. Like-named read-outs stand apart in the source and are kept apart here. Square brackets hold non-standard residues; d marks the D form. Peptide text beside a SMILES is read from it. dPhe(F5) = N[C@H](Cc1c(F)c(F)c(F)c(F)c1F)C(=O)O; dBpa = N[C@H](Cc1ccc(C(=O)c2ccccc2)cc1)C(=O)O; dCha = N[C@H](CC1CCCCC1)C(=O)O

What was measured:
[1] = at the recommended dose; non-patent literature 15; read-out: Cmax in the human studies; cited from earlier work
[2] = Pharmacokinetics of CBP501, combination study; type: in vivo, human; conditions: for Cl / AUC(0-inf) / Cmax / clearance / half-life: combination with cisplatin; for AUC(0-inf) / Cmax / clearance / half-life: human, in vivo
[3] = tested on: patients with locally advanced or metastatic solid tumors; test: Phase I single agent study of CBP501 (Study A): MTD, DLT, safety, antitumor activity; type: in vivo, human
Text: PK was examined in cycle (cy) 1. MTD is the level below that where 2 of 3-6 patients (pts) have DLT during cy 1-2.
A minimum of 3 patients were to be enrolled at each dose level, and 6 in the event of DLT.
(1) Neutropenia Gr 4 lasting 7 days (5 days in combination study) or Gr 3-4 neutropenia with fever and/or infection, (2) Thrombocytopenia Gr 4 (or grade 3 with bleeding), (3) Treatment-related non-hematological toxicity Gr 3 or 4 (excluding Gr 3 vomiting or diarrhea with sub-optimal prophylactic and curative treatment), and (4) Dosing delay greater than 2 weeks or treatment discontinuation due to treatment-emergent adverse events or related severe laboratory abnormalities.
The MTD was defined as the dose level below that in which DLT was observed during the first 2 cycles in at least 2 out of the 3-6 patients assessable for determination of MTD. The MTD was to be the RD for future studies. Patients evaluable for MTD were those who completed 2 treatment cycles or experienced DLT during the first 2 cycles.
(1) Echocardiogram or MUGA scan (baseline and every 2 cycles), (2) Cardiac enzymes (CPK-MB, CPK-MM, troponin; baseline and prior to each administration), and (3) ECG (before infusion, end of infusion, and 1 hr after infusion end).
(1) Pathologically-confirmed, locally advanced or metastatic solid tumors, refractory to standard therapy or for which conventional therapy is not reliably effective, (2) Presence of measurable disease according to RECIST criteria was not required, but was recommended in additional patients entered at MTD, (3) Age ≧18 years; Eastern Cooperative Oncology Group (ECOG) PS 0-2; Life expectancy >3 months, (4) Adequate organ function (hematological, hepatic, renal, metabolic), and (5) Signed informed consent

[4] = CBP501 7.2 mg/m^2, Day 1, mean, N 3
[5] = CBP501 10.8 mg/m^2, Day 1, mean, N 5
[6] = CBP501 16.2 mg/m^2, Day 1, mean, N 3
[7] = CBP501 24.3 mg/m^2, Day 1, mean, N 2
[8] = CBP501 36.45 mg/m^2, Day 1, mean, N 5
[9] = cardiac monitoring, both studies
[10] = single agent, 9.5 mg/m^2, 3 pts
[11] = single agent, 16.9 mg/m^2, 3 pts
[12] = single agent, 22.5 mg/m^2, 7 pts

N=C(N)NCCC[C@@H](NC(=O)[C@@H](CCCNC(=N)N)NC(=O)[C@@H](CCC(N)=O)NC(=O)[C@@H](CCCNC(=N)N)NC(=O)[C@@H](CCCNC(=N)N)NC(=O)[C@@H](CCCNC(=N)N)NC(=O)[C@@H](CC1CCCCC1)NC(=O)[C@@H](Cc1c(F)c(F)c(F)c(F)c1F)NC(=O)[C@@H](CO)NC(=O)[C@@H](Cc1c[nH]c2ccccc12)NC(=O)[C@@H](CO)NC(=O)[C@H](N)Cc1ccc(C(=O)c2ccccc2)cc1)C(=O)O [CBP501, H-(D)p-Benzoylphenylalanyl-(D)seryl-(D)tryptophyl-(D)seryl-(D)pentafluorophenylalanyl-(D)cyclohexylalanyl-(D)arginyl-(D)arginyl-(D)arginyl-(D)glutaminyl-(D)arginyl-(D)arginine acetate salt] (H-[dBpa][dS][dW][dS][dPhe(F5)][dCha][dR][dR][dR][dQ][dR][dR]-OH)
Cmax [1]: ~4 µM
Cl [2, 4]: 2752 mL/h/m^2
Cl [2, 5]: 2198 mL/h/m^2
Cl [2, 6]: 2124 mL/h/m^2
Cl [2, 7]: 1217 mL/h/m^2
Cl [2, 8]: 971 mL/h/m^2
Cl ([2]; CBP501 […]^2, Day 1, mean, N 6): 2526 mL/h/m^2
AUC(0-inf) [2, 4]: 2820 ng·h/mL
Cmax [2, 4]: 1770 ng/mL
clearance [2, 4]: 1.25 mL/min/kg
half-life [2, 4]: 1.7 h
AUC(0-inf) [2, 5]: 5350 ng·h/mL
Cmax [2, 5]: 2550 ng/mL
clearance [2, 5]: 0.883 mL/min/kg
half-life [2, 5]: 1.7 h
AUC(0-inf) [2, 6]: 7640 ng·h/mL
Cmax [2, 6]: 3490 ng/mL
clearance [2, 6]: 0.9 mL/min/kg
half-life [2, 6]: 2.8 h
AUC(0-inf) [2, 7]: 20200 ng·h/mL
Cmax [2, 7]: 6830 ng/mL
clearance [2, 7]: 0.567 mL/min/kg
half-life [2, 7]: 4.1 h
AUC(0-inf) [2, 8]: 39400 ng·h/mL
Cmax [2, 8]: 9490 ng/mL
clearance [2, 8]: 0.417 mL/min/kg
half-life [2, 8]: 3.7 h
clearance ([2]; CBP501 […]^2, Day 1, mean, N 6): 1.05 mL/min/kg
half-life ([2]; CBP501 […]^2, Day 1, mean, N 6): 3.9 h
dose-proportionality of Cmax and AUC ([2]; in combination with cisplatin, over the dose range evaluated, acetate salt): showed dose-proportionality
QTc > 500 ms (patients) ([3]; Single agent (16 pts), centralized ECG review): 0
Abdominal pain Gr 1-2 ([3]; Single-agent (n = 30)): 7
Abdominal pain Gr 3 ([3]; Single-agent (n = 30)): 2
Allergy (includes infusion reaction, flushing, rash, etc.) Gr 1-2 ([3]; Single-agent (n = 30)): 18
Diarrhea Gr 1-2 ([3]; Single-agent (n = 30)): 5
Diarrhea Gr 3 ([3]; Single-agent (n = 30)): 1
Fatigue Gr 1-2 ([3]; Single-agent (n = 30)): 14
Fatigue Gr 3 ([3]; Single-agent (n = 30)): 1
Headache Gr 1-2 ([3]; Single-agent (n = 30)): 3
Increased troponin Gr 3 ([3]; Single-agent (n = 30)): 1
Nausea/Vomiting Gr 1-2 ([3]; Single-agent (n = 30)): 5
Neutropenia Gr 1-2 ([3]; Single-agent (n = 30)): 3
QTc prolongation Gr 1-2 ([3]; Single-agent (n = 30)): 10
Thrombocytopenia Gr 1-2 ([3]; Single-agent (n = 30)): 4
Anemia Gr 1-2 ([3]; Single-agent (n = 30), 16 with baseline anemia): 22 (16*)
patients with QTc prolongation by >60 msec ([3]; both studies, centralized ECG review (16 + 24 patients)): 4
start of allergic reaction into the infusion ([3]; both studies, rash, hot flushes, urticaria): 10 to 60 min
pts with QTcB >500 msec [3, 9]: 1
pts with QTcB prolongation >60 msec [3, 9]: 2
time for troponin to return to normal levels ([3]; patient at DL 8, single-agent, Gr 3 troponin elevation): within one week
tolerability ([3]; single agent): well tolerated
Patients with allergic reaction Gr1 ([3]; single agent, 0.9 mg/m^2, 4 pts): 1
Patients with allergic reaction Gr2 ([3]; single agent, 7.2 mg/m^2, 3 pts): 3
Patients with allergic reaction Gr1 [3, 10]: 1
Patients with allergic reaction Gr2 [3, 10]: 2
Patients with allergic reaction Gr1 [3, 11]: 1
Patients with allergic reaction Gr2 [3, 11]: 1
Patients with allergic reaction Gr1 [3, 12]: 3
Patients with allergic reaction Gr2 [3, 12]: 4
pts with Gr 1-2 allergy ([3]; single agent, 30 pts treated (43%), interim summary): 13
Patients with allergic reaction Gr1 ([3]; single agent, TOTAL, 30 pts): 7
Patients with allergic reaction Gr2 ([3]; single agent, TOTAL, 30 pts): 11
MTD ([3]; single agent, doses up to 22.5 mg/m^2): not reached
DLT ([3]; single-agent, dose 22.5 mg/m^2, 7 pts, 11 cycles): 1
